Here are results for 30 molecules from patent US20260132129A1 (Genesis Therapeutics, Inc., priority 2022, published 2026).

The experiment addresses T1, PI3Kα H1047R (T47D cells) (Homo sapiens, UniProt P42336, H1047R).
T1 construct: endogenous in cells; host or cells: T47D cells
The experiment can be described thus: PI3Kα cellular assay: pAKT HTRF in T47D cells after EGF stimulation. In kind it is cell-based. The note with it: for pIC50: T47D cells (PI3Kα H1047R), pAKT S473 HTRF, EGF stimulation. A digest of the protocol:
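T47D cells (PIK3CA H1047R) serum-starved 16 h, then treated 1 h at 37 °C with compound (10,000 nM top, 3-fold steps to 0.5 nM). After 10 min stimulation with 20 ng/mL EGF, cells were lysed and pAKT measured by HTRF.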
On the technique in general: TR-FRET usually uses a lanthanide donor and a delayed reading to cut background.

pIC50: −log10 of the molar value.

One may read the pIC50 as −log10 of the IC50, conventionally taken in molar units. High values mean a low IC50, low ones a high IC50.

T1 sequence (P42336 whole entry H1047R): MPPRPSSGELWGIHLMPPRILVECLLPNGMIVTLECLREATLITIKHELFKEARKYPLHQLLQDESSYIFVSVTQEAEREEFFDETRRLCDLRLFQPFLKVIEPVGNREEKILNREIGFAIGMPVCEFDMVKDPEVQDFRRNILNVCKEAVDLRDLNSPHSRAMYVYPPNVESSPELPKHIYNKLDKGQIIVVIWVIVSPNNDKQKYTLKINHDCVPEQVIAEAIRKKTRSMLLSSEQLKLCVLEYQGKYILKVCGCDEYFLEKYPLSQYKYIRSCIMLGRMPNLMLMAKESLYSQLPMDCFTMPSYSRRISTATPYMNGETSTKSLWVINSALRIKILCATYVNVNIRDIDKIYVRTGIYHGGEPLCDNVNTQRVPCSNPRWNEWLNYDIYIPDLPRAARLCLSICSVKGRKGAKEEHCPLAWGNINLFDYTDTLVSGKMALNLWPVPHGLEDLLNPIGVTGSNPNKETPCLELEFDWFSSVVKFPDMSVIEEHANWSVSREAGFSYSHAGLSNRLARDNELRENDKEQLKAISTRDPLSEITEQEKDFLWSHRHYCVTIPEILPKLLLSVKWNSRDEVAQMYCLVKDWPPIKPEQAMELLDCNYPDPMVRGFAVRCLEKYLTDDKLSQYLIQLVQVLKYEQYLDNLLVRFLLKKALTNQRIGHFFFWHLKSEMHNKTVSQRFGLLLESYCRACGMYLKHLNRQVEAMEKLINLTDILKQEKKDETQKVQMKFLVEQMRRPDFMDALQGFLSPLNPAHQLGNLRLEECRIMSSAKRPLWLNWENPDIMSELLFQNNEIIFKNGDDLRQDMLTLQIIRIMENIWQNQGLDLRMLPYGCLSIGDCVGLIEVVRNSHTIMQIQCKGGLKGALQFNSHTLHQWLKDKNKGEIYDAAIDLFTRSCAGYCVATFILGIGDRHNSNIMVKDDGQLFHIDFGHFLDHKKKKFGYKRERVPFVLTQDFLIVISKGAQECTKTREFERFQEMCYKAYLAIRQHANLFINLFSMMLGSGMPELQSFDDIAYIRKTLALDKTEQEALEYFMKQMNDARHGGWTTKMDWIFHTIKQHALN
T1 sequence (P27986 whole entry partner): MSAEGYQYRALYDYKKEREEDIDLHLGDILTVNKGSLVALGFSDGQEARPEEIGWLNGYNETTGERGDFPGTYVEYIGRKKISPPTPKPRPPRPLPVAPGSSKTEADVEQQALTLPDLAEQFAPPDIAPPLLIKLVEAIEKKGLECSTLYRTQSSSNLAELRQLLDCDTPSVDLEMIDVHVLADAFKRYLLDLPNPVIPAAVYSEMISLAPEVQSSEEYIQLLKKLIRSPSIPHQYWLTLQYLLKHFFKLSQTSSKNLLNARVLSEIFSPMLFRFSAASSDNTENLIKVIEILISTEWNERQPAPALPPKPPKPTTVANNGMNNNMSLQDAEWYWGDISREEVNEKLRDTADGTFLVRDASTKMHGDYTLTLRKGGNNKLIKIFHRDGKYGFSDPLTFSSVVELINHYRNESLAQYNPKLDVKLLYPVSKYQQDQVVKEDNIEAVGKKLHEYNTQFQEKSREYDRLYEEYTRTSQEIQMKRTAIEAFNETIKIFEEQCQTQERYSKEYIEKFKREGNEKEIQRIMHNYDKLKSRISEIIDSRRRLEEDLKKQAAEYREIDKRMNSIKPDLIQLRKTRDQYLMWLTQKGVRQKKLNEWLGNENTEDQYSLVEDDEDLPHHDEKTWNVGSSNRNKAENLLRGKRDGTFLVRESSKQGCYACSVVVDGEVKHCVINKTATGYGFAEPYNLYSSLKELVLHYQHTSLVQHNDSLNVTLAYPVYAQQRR

With `Cc1cc([C@@H](C)Nc2ccccc2C(=O)O)c2nc(C#CC3CC3)cc(=O)n2c1` [Compound 1224], the “T47D pAKT S473 HTRF IC50 (H1047R): T47D (H1047R) selectivity over SKBR3 (WT)” value is listed as “C (C denotes ≤5-fold)”.
As for `Cc1cc(C(C)Nc2ccccc2C(=O)O)c2nc(-c3cccc(F)c3)c(C3CC3)c(=O)n2c1` (stereo not shown) [Compound 1231], the pIC50 is > 7.00 and the “T47D pAKT S473 HTRF IC50 (H1047R): T47D (H1047R) selectivity over SKBR3 (WT)” value is “A (A denotes >20-fold)”.
For `Cc1cc(C(C)Nc2ccc(F)cc2C(=O)O)c2nc(-c3cccc(F)c3)c(C)c(=O)n2c1` (stereo not shown) [Compound 1238], in that order: > 7.00 and “A (A denotes >20-fold)”.
For `Cc1cc(C(C)Nc2cccnc2C(=O)O)c2nc(-c3ccnc(C4CC4)c3)c(C)c(=O)n2c1` (stereo not shown) [Compound 1241], in that order: < 5.70 and “A (A denotes >20-fold)”.
For the molecule `Cc1cccc(-c2nc3c(C(C)Nc4ccccc4C(=O)O)cc(C)cn3c(=O)c2C(C)C)c1` (stereo not shown) [Compound 1245], the “T47D pAKT S473 HTRF IC50 (H1047R): T47D (H1047R) selectivity over SKBR3 (WT)” value was “A (A denotes >20-fold)”.
Consider `Cc1cc(C(C)Nc2ccccc2S(N)(=O)=O)c2nc(-c3cccc(F)c3)c(C)c(=O)n2c1` (stereo not shown) [Compound 1248], for which the pIC50 was 6.30 to 7.00 and the “T47D pAKT S473 HTRF IC50 (H1047R): T47D (H1047R) selectivity over SKBR3 (WT)” value is “A (A denotes >20-fold)”.
For `Cc1cc(C(C)Nc2ccccc2C(=O)O)c2nc(OC3CCCOC3)c(C)c(=O)n2c1` (stereo not shown) [Compound 1254] the same measures were 6.30 to 7.00 and “A (A denotes >20-fold)”.
For `Cc1cc(C(C)Nc2ccccc2C(=O)O)c2nc(-c3ccc(F)cc3)c(C#N)c(=O)n2c1` (stereo not shown) [Compound 1260], in that order: > 7.00 and “A (A denotes >20-fold)”.
For `Cc1cc(C(C)Nc2ccccc2S(N)(=O)=O)c2nc(-c3cccnc3)c(C3CC3)c(=O)n2c1` (stereo not shown) [Compound 1261] the same measures were 6.30 to 7.00 and “A (A denotes >20-fold)”.
`CNC(=O)C#Cc1ccc(-c2nc3c([C@@H](C)Nc4ccccc4C(=O)O)cc(C)cn3c(=O)c2C)cc1F` [Compound 1264]: the pIC50 was > 7.00 and the “T47D pAKT S473 HTRF IC50 (H1047R): T47D (H1047R) selectivity over SKBR3 (WT)” value is given as “A (A denotes >20-fold)”.
On to `CNC(=O)C#Cc1ccc(-c2nc3c([C@H](C)Nc4ccccc4C(=O)O)cc(C)cn3c(=O)c2C)cc1F` [Compound 1265], for which the pIC50 was < 5.70 and the “T47D pAKT S473 HTRF IC50 (H1047R): T47D (H1047R) selectivity over SKBR3 (WT)” value was “C (C denotes ≤5-fold)”.
As for `Cc1cc([C@H](C)Nc2ccccc2C(=O)O)c2nc(-c3ccc(C#CC4(C)CCC4)c(F)c3)c(C)c(=O)n2c1` [Compound 1267], the “T47D pAKT S473 HTRF IC50 (H1047R): T47D (H1047R) selectivity over SKBR3 (WT)” value is “C (C denotes ≤5-fold)”.
In the case of `Cc1cc([C@@H](C)Nc2ccccc2C(=O)O)c2nc(-c3ccc(-c4ccc5c(c4)CCO5)c(F)c3)c(C)c(=O)n2c1` [Compound 1268], the pIC50 is > 7.00 and the “T47D pAKT S473 HTRF IC50 (H1047R): T47D (H1047R) selectivity over SKBR3 (WT)” value is on record as “A (A denotes >20-fold)”.
With `Cc1cc([C@H](C)Nc2ccccc2C(=O)O)c2nc(-c3ccc(-c4ccc5c(c4)CCO5)c(F)c3)c(C)c(=O)n2c1` [Compound 1269], the pIC50 is < 5.70 and the “T47D pAKT S473 HTRF IC50 (H1047R): T47D (H1047R) selectivity over SKBR3 (WT)” value is reported as “C (C denotes ≤5-fold)”.
For `COCC1=NC(C#N)C(NCc2ccc(-c3nc4c([C@H](C)Nc5ccccc5C(=O)O)cc(C)cn4c(=O)c3C)cc2F)O1` (stereo partly shown) [Compound 1271], the “T47D pAKT S473 HTRF IC50 (H1047R): T47D (H1047R) selectivity over SKBR3 (WT)” value is listed as “B (B denotes 20-fold≥value>5-fold)”.
Take `Cc1cc(C(C)Nc2ccccc2C(=O)O)c2nc(-c3cnc(C4CCOCC4)nc3)c(C)c(=O)n2c1` (stereo not shown) [Compound 1272]: the pIC50 is 6.30 to 7.00 and the “T47D pAKT S473 HTRF IC50 (H1047R): T47D (H1047R) selectivity over SKBR3 (WT)” value is reported as “A (A denotes >20-fold)”.
For `Cc1cc([C@@H](C)Nc2ccccc2S(=O)(=O)O)c2nc(-c3ccc(C4CC4)cc3)c(C3CC3)c(=O)n2c1` [Compound 1274], in that order: 6.30 to 7.00 and “A (A denotes >20-fold)”.
For `Cc1cc([C@H](C)Nc2ccccc2S(=O)(=O)O)c2nc(-c3ccc(C4CC4)cc3)c(C3CC3)c(=O)n2c1` [Compound 1275], in that order: < 5.70 and “C (C denotes ≤5-fold)”.
For `Cc1cc([C@H](C)Nc2ccccc2C(=O)O)c2nc(-c3ccc(-c4ccc5oc(=O)n(C)c5c4)c(C)c3)c(C)c(=O)n2c1` [Compound 1276], in that order: > 7.00 and “C (C denotes ≤5-fold)”.
Take `Cc1cc([C@@H](C)Nc2ccccc2C(=O)O)c2nc(-c3cccc(F)c3)c(C(C)C)c(=O)n2c1` [Compound 1277]: the pIC50 was 6.30 to 7.00 and the “T47D pAKT S473 HTRF IC50 (H1047R): T47D (H1047R) selectivity over SKBR3 (WT)” value is listed as “A (A denotes >20-fold)”.
For `Cc1cc([C@H](C)Nc2ccccc2C(=O)O)c2nc(-c3cccc(F)c3)c(C(C)C)c(=O)n2c1` [Compound 1278] the same measures were < 5.70 and “C (C denotes ≤5-fold)”.
For `Cc1cc([C@@H](C)Nc2ccccc2C(=O)O)c2nc([C@H]3CCCOC3)c(C)c(=O)n2c1` [Compound 1279] the same measures were > 7.00 and “A (A denotes >20-fold)”.
For `Cc1cc([C@@H](C)Nc2ccccc2C(=O)O)c2nc([C@@H]3CCCOC3)c(C)c(=O)n2c1` [Compound 1280] the same measures were > 7.00 and “A (A denotes >20-fold)”.
For the molecule `Cc1cc([C@H](C)Nc2ccccc2C(=O)O)c2nc([C@@H]3CCCOC3)c(C)c(=O)n2c1` [Compound 1281], the pIC50 was 5.70 to 6.30 and the “T47D pAKT S473 HTRF IC50 (H1047R): T47D (H1047R) selectivity over SKBR3 (WT)” value is given as “B (B denotes 20-fold≥value>5-fold)”.
For `Cc1cc([C@H](C)Nc2ccccc2C(=O)O)c2nc([C@H]3CCCOC3)c(C)c(=O)n2c1` [Compound 1282], in that order: < 5.70 and “C (C denotes ≤5-fold)”.
Turning to `Cc1cc([C@@H](C)Nc2ccccc2S(N)(=O)=O)c2nc(C3CCCOC3)c(C)c(=O)n2c1` (stereo partly shown) [Compound 1283], the negative-log IC50 (pIC50) was < 5.70 and the “T47D pAKT S473 HTRF IC50 (H1047R): T47D (H1047R) selectivity over SKBR3 (WT)” value is recorded as “C (C denotes ≤5-fold)”.
For `Cc1cc([C@H](C)Nc2ccccc2S(N)(=O)=O)c2nc([C@@H]3CCCOC3)c(C)c(=O)n2c1` [Compound 1285] the same measures were > 7.00 and “A (A denotes >20-fold)”.
For `Cc1cc([C@H](C)Nc2ccccc2S(N)(=O)=O)c2nc([C@H]3CCCOC3)c(C)c(=O)n2c1` [Compound 1286], in that order: 5.70 to 6.30 and “B (B denotes 20-fold≥value>5-fold)”.
As to `Cc1cc([C@@H](C)Nc2ccccc2S(N)(=O)=O)c2nc(C3CCN(CC(C)C)CC3)c(C)c(=O)n2c1` [Compound 1287], the “T47D pAKT S473 HTRF IC50 (H1047R): T47D (H1047R) selectivity over SKBR3 (WT)” value is listed as “C (C denotes ≤5-fold)”.
`CC(=O)N1CCC(c2ccc(-c3nc4c([C@@H](C)Nc5ccccc5C(=O)O)cc(C)cn4c(=O)c3C)cc2)CC1` [Compound 1289]: the pIC50 is 6.30 to 7.00 and the “T47D pAKT S473 HTRF IC50 (H1047R): T47D (H1047R) selectivity over SKBR3 (WT)” value is “A (A denotes >20-fold)”.
